Measured values: BindingDB's records for doi:10.1002/cbic.200300724 (The Scripps Research Institute, 2003)
Where “and” joins values, the source holds several entries; their conditions need not be identical. Equal entries are not always repeated.

Biological target: T1, Gag-Pol polyprotein [489-587,G537V,H558K,V571A] (Human immunodeficiency virus, UniProt P12497, G537V/H558K/V571A)
T1 construct: 489-587
Test: Inhibiton Activity Assay
Protocol: The inhibition activity against HIV-1 PR and three mutants (G48V, V82F, V82A)were done in 96 well microtiter plate and were assayed. Wells that showed 50% inhibition of the enzyme activity were selected and diluted to 10nM and screened again.

## COc1ccc(S(=O)(=O)N(CC(C)C)C[C@@H](O)[C@H](Cc2ccccc2)n2cc(COC(=O)N[C@H]3c4ccccc4C[C@H]3O)nn2)cc1 [HIV-1 PR Inhibitor, compound 6]
  IC50: 6 nM and 19 nM and 39 nM and 46 nM

## COc1ccc(S(=O)(=O)N(CC(C)C)C[C@@H](O)[C@H](Cc2ccccc2)n2cc(CNC(=O)c3ccc(CNC(=O)OC(C)(C)C)cc3)nn2)cc1 [HIV-1 PR Inhibitor, compound 8]
  IC50: 13 nM and 24 nM and 17 nM and 52 nM
  Ki: 4 nM and 13 nM and 9.7 nM and 30 nM
